Paper PMC10582335 (Frontiers in Pharmacology, 2023)
Several values for one entry are separate records, joined by “and”; a condition that tells them apart may be missing. Equal entries are not always repeated. Where two headings read alike, the source gives them in different places.

Assays:
[1] = parameters: method as in Frost et al., 2015; details: ref Frost et al., 2015, cited from earlier work
[2] = Pharmacokinetics of apixaban in rats, alone and after multiple doses of almonertinib; type: in vivo, Sprague-Dawley (SD) rats; details: for increase of AUC of apixaban: multiple doses of almonertinib; for MRT inf / MRT last / AUC(0-inf) / AUC(0-t) / Cmax / Tmax / CL/F / Vd/F / half-life: male, Sprague-Dawley, rat, po; for MRT inf: read-out: MRT0-∞; for MRT last: read-out: MRT0-t; for CL/F: read-out: CLz/F (converted); for Vd/F: read-out: Vz/F; for half-life: read-out: t1/2z (converted)
Experimental: Chromatographic separation was performed using an XSelect HSS T3 column (2.1 mm × 100 mm, 2.5 µm, Waters, Milford, MA, United States) at 40°C by gradient elution. The mobile phase consisted of water (A) and acetonitrile (0.1% formic acid, B). […] The flow rate was 0.35 mL min^−1, and the injection volume was 6 µL. The positive ion mode with multiple reaction detection was used. […] The mass spectrometer conditions, including delustering potential (DP) and collision energy (CE) of the compounds, are shown in Table 1. […] Protein precipitation was used to process the plasma samples. 5 μL of mixed IS working solution, 50 µL of the plasma samples, and 150 µL of acetonitrile were vortex-mixed for 1.0 min. […] The supernatant was transferred to a 96-well plate for sample analysis. […] (Beijing, China). […] The study was approved and supervised by the Animal Ethics Committee of Hebei General Hospital (Shijiazhuang, China) (No. 2023024). Adaptive feeding (sufficient food and water) was performed for 1 week before the experiment. […] All rats were fasted for 12 h before starting the experiments while still given water. Sixty healthy rats were randomly divided into ten groups (n = 6). […] Blood samples were centrifuged at 3,500 g for 10 min, and then the supernatant was gathered and stored in a −80°C refrigerator. After, rat intestine, kidney and liver tissues were harvested for molecular analysis on the ninth or fifth day after treatment with the corresponding drugs for each group. The tissues were placed immediately at −80°C. DAS 2.1.1 Software (Mathematical Pharmacology Professional Committee of China, Shanghai, China) was applied to calculate pharmacokinetic parameters using non-compartmental analysis. SPSS 25.0 statistical software (SPSS Inc., Chicago, IL, United States) was applied to statistically analyze the main pharmacokinetic parameters, including AUC, Cmax, Tmax, t1/2, CLz/F, Vz/F, and MRT.

[3] = parameters: method as in Kim et al., 2019; details: with verapamil (inhibitor of P-gp and CYP3A4); ref Kim et al., 2019; cited from earlier work
[4] = apixaban 0.25 mg/kg with multiple doses of almonertinib (group 8) compared with group 2, rats
[5] = apixaban 0.5 mg/kg with multiple doses of almonertinib (group 7) compared with group 2, rats
[6] = plasma, 0.25 mg/kg, rats, oral apixaban 0.25 mg/kg after almonertinib 15 mg/kg for nine days (group 8), mean ± SD, n = 6
[7] = plasma, 0.5 mg/kg, rats, oral apixaban 0.5 mg/kg after almonertinib 15 mg/kg for nine days (group 7), mean ± SD, n = 6
[8] = plasma, 0.5 mg/kg, rats, oral apixaban 0.5 mg/kg alone (group 2), mean ± SD, n = 6

COc1ccc(-n2nc(C(N)=O)c3c2C(=O)N(c2ccc(N4CCCCC4=O)cc2)CC3)cc1 [apixaban, Apixaban]
increase in exposure to apixaban ([1]; combined with diltiazem): 1.4 fold
increase in exposure to apixaban ([1]; combined with ketoconazole): 2.0 fold
increase of Cmax of apixaban ([2]; apixaban 0.25 mg/kg with multiple doses of almonertinib (group 8) compared with apixaban 0.5 mg/kg alone (group 2), rats): 2.19 fold and 2.2 fold
decrease of CLz/F of apixaban [2, 4]: 5.29 fold
increase of AUC0-t of apixaban [2, 4]: 2.06 fold
increase of AUC0-∞ of apixaban [2, 4]: 2.02 fold
increase of Cmax of apixaban ([2]; apixaban 0.5 mg/kg with multiple doses of almonertinib (group 7) compared with apixaban 0.5 mg/kg alone (group 2), rats): 2.69 fold and ~3.0 fold
decrease of CLz/F of apixaban [2, 5]: 3.00 fold
increase of AUC0-t of apixaban [2, 5]: 2.87 fold
increase of AUC0-∞ of apixaban [2, 5]: 2.82 fold
increase of AUC of apixaban ([2]; dose of apixaban reduced by half, rats (discussion)): 2.1 fold
MRT inf ([2]; in vivo, 0.25 mg/kg): 2.06 ± 0.36 h
MRT last ([2]; in vivo, 0.5 mg/kg): 2.19 ± 0.13 h
AUC(0-inf) [2, 6]: 1870 ± 528 ng·h/mL
AUC(0-t) [2, 6]: 1870 ± 529 ng·h/mL
Cmax [2, 6]: 645 ± 191 ng/mL
Tmax [2, 6]: 0.79 ± 0.25 h
CL/F [2, 6]: 2.33 mL/min/kg
Vd/F [2, 6]: 0.44 ± 0.11 L/kg
half-life [2, 6]: 2.17 ± 0.15 h
MRT last ([2]; plasma, 0.25 mg/kg): 2.01 ± 0.32 h
AUC(0-inf) [2, 7]: 2370 ng·h/mL
AUC(0-t) [2, 7]: 2360 ng·h/mL
Cmax [2, 7]: 747 ± 159 ng/mL
Tmax [2, 7]: 0.63 ± 0.14 h
CL/F [2, 7]: 3.67 mL/min/kg
MRT inf [2, 7]: 2.11 ± 0.13 h
Vd/F [2, 7]: 0.58 ± 0.2 L/kg
half-life [2, 7]: 1.81 ± 0.23 h
AUC(0-inf) [2, 8]: 621 ± 168 ng·h/mL
AUC(0-t) [2, 8]: 611 ± 168 ng·h/mL
Cmax [2, 8]: 202 ± 50.9 ng/mL
Tmax [2, 8]: 0.68 ± 0.28 h
CL/F [2, 8]: 14.7 mL/min/kg
MRT inf [2, 8]: 2.42 ± 0.16 h
Vd/F [2, 8]: 3.72 ± 1.63 L/kg
half-life [2, 8]: 2.95 ± 0.96 h
MRT last ([2]; plasma, 0.5 mg/kg): 2.08 ± 0.13 h
increase of AUC of apixaban ([2]; rats (discussion, AUC not specified further)): ~3.0 fold

O=C(NC[C@H]1CN(c2ccc(N3CCOCC3=O)cc2)C(=O)O1)c1ccc(Cl)s1 [rivaroxaban, Rivaroxaban]
increase of systemic exposure of rivaroxaban [3]: 2.8 fold
